Marks after values point to notes of the source that are not given here.
Assays:
[1] = clinical dosage converted into the dosage in the mouse; cited from earlier work
[2] = tested on: cultured cardiocytes of the rats (hypertrophy induced by NE); test: protein content in rat cardiocyte hypertrophy induced by norepinephrine (Lowry method); assay type: cell-based, Wistar rats
Source text: 1. Wistar rats 1-3 day postpartum (purchased from Center for Experimental Animal, Third Military Medical University) was used, sacrificed by cervical dislocation, and fixed on a dissecting table. The ventral skin of the corpus was disinfected with 2% iodine tincture and then 75% ethanol. The heart was removed, cutted into pieces of about 1-3 mm^3, digested repeatedly with a digestion solution containing 0.08% trypase, 0.02% EDTA, and 0.05% collogen. The cells were collected in DMEM containing 10% fetal bovine serum and cultured in an incubator at 37° C., 5% CO2.
2. The cardiocytes cultured for 48 h were subjected to replacement of the DMEM with a serum-free DMEM culture media and further cultured for 24 h before addition of a drug according to the following groups: • Normal control group; 10 μl of PBS was added. • Norepinephrine group; norepinephrine (NE, Serva Corporation, USA) was added at 1 μmol/L. • Polypeptide-dosed group: NE was added, while the corresponding polypeptide drug was added at 10 nmol/L.
3. After addition of the drug, the cells were further cultured for 24 h and then the culture media was discarded. The culture was washed with PBS, followed by adding 0.5 ml of 5% trichloracetic acid per well, and left at 4° C. for 1 h. The precipitate was dissolved in 1 ml of 0.1 mol/L NaOH. The protein content was determined by Lowry method.

[3] = tested on: hypertrophic cardiocyte induced by angiotensin II; test: protein content in rat cardiocyte hypertrophy induced by angiotensin II (Lowry method); assay type: cell-based
Protocol: 1. The cardiocytes were cultured for 48 h in the same way as described above, then subjected to replacement of the DMEM with a serum-free DMEM culture media, and further cultured for 24 h before addition of a drug according to the following groups: normal control group: 10 μl of PBS was added; Ang II group; Ang II was added at 1 μmol/L; serial polypeptide-dosed group: Ang II was added, while each of the dodecapeptide, pentadecapeptide, heptacosapeptide, pantapentacontapeptide was added at 10 nmol/L.
2. After addition of the drug, the cells were further cultured for 24 h and then the culture media was discarded. The culture was washed with PBS, followed by adding 0.5 ml of 5% trichloracetic acid per well, and left at 4° C. for 1 h. The precipitate was dissolved in 1 ml of 0.1 mol/L NaOH. The protein content was determined by Lowry method.

[4] = tested on: myocardial hypertrophy in mice induced by norepinephrine; test: myocardial hypertrophy in mice induced by norepinephrine; assay type: in vivo
Protocol: Fifty of the mice used in the experiment (purchased from Center for Experimental Animals, Third Military Medical University) was assigned into five groups with 10 mice per group. The mice in the control group were administrated with 0.1% ascorbic acid-3 mg % potassium sodium tartrate-physiological saline, The mice in the model group were administrated with 0.1% ascorbic acid-6 mg % norepinephrine bitartrate-physiological saline (equivalent to 1.5 mg/kg NE); The mice in three dosing groups were administrated with the pentadecapeptide, the heptacosapeptide, and the pantapentacontapeptide at 30 μg/kg respectively, while administration of 0.1% ascorbic acid—6 mg % norepinephrine bitartrate—physiological saline. The administration was performed consecutively by intraperitoneal injection (ip), twice a day (bid), for 15 days. The dosing volumes for each group were 50 ml/kg. Then, the animals were sacrificed by cervical dislocation. The heart was removed by thoracotomy, washed with the chilled physiological saline to get rid of blood stain, blotted with filter paper, weighed on a scale. The atriums and the right ventricle were carefully removed (with the interventricular septum left), and the left ventricle was weighed.

[5] = tested on: myocardial hypertrophy in rats induced by norepinephrine; test: myocardial hypertrophy in rats induced by norepinephrine; assay type: in vivo, Wistar rats
Protocol: Thirty of Wistar rats were selected and assigned into five groups with 6 rats per group. The rats in the control group were administrated with 0.1% ascorbic acid-3 mg % potassium sodium tartrate-physiological saline; the rats in the model group were administrated with 0.1% ascorbic acid-6 mg % norepinephrine bitartrate-physiological saline; the rats in the three dosing groups were administrated with the pentadecapeptide, the heptacosapeptide, and the pantapentacontapeptide at 15 μg/kg respectively, while administration of norepinephrine. The dosing volume for each group was 33 ml/kg, and the administration was performed consecutively by ip, bid, for 20 days. At that time, the heart and left ventricle were weighed.

[6] = tested on: myocardial hypertrophy in rats induced by aortic coarctation; test: myocardial hypertrophy in rats induced by aortic coarctation; assay type: in vivo, Wistar rats; details: 15 μg/kg ip once a day, 3 weeks post operation; x ± SEM
Source text: Healthy male Wistar rats (purchased from Center for Experimental Animals, Third Military Medical University) were randomly assigned into the following groups: the sham-operation group, operation model group (SRS), and polypeptide-dosing group. Before the operation, animals were fasted overnight and given Ad libitum access to water, and then anesthetized with pentobarbital sodium and underwent celiotomy. The abdominal aorta was separated, and a […] needle (0.80 mm outer diameter) was fastened along the abdominal aorta above the right renal artery with a silk suture before the needle was quickly removed. Then, the abdomen was closed by suturation. The rats in the sham operation group were subjected to the same treatment as the aforementioned, except no ligation with silk suture. From the first day post operation, the rats in the sham operation control group and in the operation model group were administrated with physiological saline at 7.5 ml/kg, ip, once a day; the rats in the dosing group were administrated with the pentadecapeptide, heptacosapeptide, and pantapentacontapeptide at 15 μg/kg respectively, ip, once a day. Rats were reared routinely for 3 weeks and then sacrificed. The heart was removed by thoracotomy, washed with the chilled physiological saline to get rid of blood stain, blotted with filter paper. The heart and the left ventricle were weighed on a scale.

[7] = tested on: rats with spontaneous hypertension (SHR); test: myocardial remodeling and blood pressure in rats with spontaneous hypertension (SHR); assay type: in vivo, rat; details: polypeptide 30 μg/kg ip bid, SHR, x ± s, n = 6
Protocol: 1. Thirty 13-week-old rats with spontaneous hypertension (SHR, purchased from Beijing Vital River Laboratory Animal Technology Co. Ltd., Beijing) were selected and randomly assigned into five groups with 6 rats per group:
SHR model group (Vehicle): 0.9% physiological saline, intraperitoneal injection at a dosage of 5 ml/kg, bid.
Positive control group (losartan): potassium losartan at a dosage of 6 mg/kg, intragastric administration, qd.
The pentadecapeptide group: administration of the pentadecapeptide at a dosage of 30 μg/kg by intraperitoneal injection, bid.
The heptacosapeptide group: administration of the heptacosapeptide at a dosage of 30 μg/kg by intraperitoneal injection, bid.
The pantapentacontapeptide group: administration of the pantapentacontapeptide at a dosage of 30 μg/kg by intraperitoneal injection, bid.
Six of INKY (Wistar-Kyoto) rats (purchased from Center for Experimental Animals, Third Military Medical University) were additionally selected as the normal control.
2. Intervention with the drug was performed consecutively for eight weeks (from Week 14 to Week 21). The body weights of all the tested rats were obtained once every two weeks, and the administration dosage was adjustedbased on body weights.

[8] = polypeptide 30 μg/kg ip bid 15 days with NE, x ± s
[9] = polypeptide 15 μg/kg ip bid 20 days with norepinephrine, n = 6, x ± s

## C[C@H](CS)C(=O)N1CCC[C@H]1C(=O)O [captopril]
[1]
  ratio of mouse LD50/routine dosage: 388

## Pentadecapeptide: SEQ ID NO: 9, obtained by deleting amino acid residues 1 to 40 at the N-terminal of SEQ ID NO: 1 (KDTILQLNLKEYNLV; listed as Homo sapiens)
[2]; polypeptide 10 nmol/L together with NE 1 μmol/L, 24 h, n = 6, x ± s
  Protein content: 104.3 ± 12.6 μg/10^5 cells
[2]; polypeptide at 10 nmol/L
  effect on protein content in the hypertrophic cardiocyte induced by NE: significantly decrease
[3]; polypeptide 10 nmol/L + Ang II
  effect on protein content in the cardiocyte in comparison with Ang II: decrease the protein content in the cardiocyte in varying degrees
[3]; polypeptide 10 nmol/L together with Ang II 1 μmol/L, 24 h, n = 6, x ± s
  Protein content: 130.6 ± 10.79 μg/10^5 cells
[4]; 30 μg/kg ip bid 15 days with NE, P>0.05
  decrease of heart weight: 9.9%
[4]; [8]
  HI (heart index): 4.27 ± 0.42 mg/g
  HW (heart weight): 100.9 ± 12.8 mg
  LVI (left ventricular index or myocardial hypertrophy index): 3.16 ± 0.39 mg/g
  LVW (left ventricular weight): 74.7 ± 9.25 mg
[5]; 15 μg/kg ip bid 20 days with norepinephrine
  effect on the left ventricular index: significantly decrease
[5]; [9]
  HI (heart index): 3.580 ± 0.226 g/kg
  HW (heart weight): 0.673 ± 0.055 g
  LVI (left ventricular index or myocardial hypertrophy index): 2.606 ± 0.154 g/kg
  LVW (left ventricular weight): 0.490 ± 0.038 g
[6]
  HI: 3.39 ± 0.10 mg/g
  HW: 706 ± 30.8 mg
  LVI: 2.01 ± 0.06 mg/g
  LVW: 418 ± 12.3 mg
[7]; 0 w
  Systolic blood pressure of artery: 177.3 ± 6.42 mmHg
[7]; 2 w
  Systolic blood pressure of artery: 190.4 ± 7.75 mmHg
[7]; 4 w
  Systolic blood pressure of artery: 200.2 ± 4.13 mmHg
[7]; 6 w
  Systolic blood pressure of artery: 217.1 ± 8.82 mmHg
[7]; 8 w
  Systolic blood pressure of artery: 224.1 ± 6.37 mmHg
[7]; echocardiography
  EF (ejection fraction): 89.4 ± 3.90%
  FS (shortening fraction): 55.1 ± 4.33%
  IVST (intervertricular septum thickness): 1.62 ± 0.20 mm
  LAD (left atrium sinistrum diameter): 3.39 ± 0.33 mm
  LVEDD (left ventricular end diastolic diameter): 5.38 ± 0.31 mm
  LVESD: 2.41 ± 0.35 mm
  PWT (left ventricular posterior wall thickness): 1.96 ± 0.16 mm
  SV (stroke volume): 0.32 ± 0.05 mL
[7]; eight weeks
  HI: 3.44 ± 0.05 mg/g
  HW: 1055 ± 30 mg
  LVI: 2.46 ± 0.04 mg/g
  LVW: 775 ± 28 mg
[7]
  CSA (cross section area of the cardiocyte): 329 ± 24** μm^2
  TDM (trans diameter of the cardiocyte): 14.88 ± 2.56 μm

Reference: patent publication US8697839B2, “GQ protein competitive inhibitory polypeptides, preparation methods and uses thereof” (Third Military Medical University, priority 2008, dated 2014)
